These results are taken from patent US11129386B2, “Microbiocidal quinoline (thio)carboxamide derivatives” (SYNGENTA PARTICIPATIONS AG, priority 2017, dated 2021).

Data set [1] has as its system Botryotinia fuckeliana (Botrytis cinerea). Kind of data set: Botryotinia fuckeliana (Botrytis cinerea)/liquid culture (Gray mould). In kind it is cell-based. The following applies: liquid culture, growth inhibition photometrically 3-4 days after application, compared to untreated control.
The test system of data set [2] is Glomerella lagenarium (Colletotrichum lagenarium). Kind of data set: Glomerella lagenarium (Colletotrichum lagenarium)/liquid culture (Anthracnose). Format: cell-based. The note with it: Colletotrichum orbiculare, 72 h, liquid culture, growth inhibition photometrically 3-4 days after application, compared to untreated control.
The next data set relates to Fusarium culmorum. As to the kind of experiment: microbe, parasite or virus in culture. In kind it is cell-based. The note with it: read-out: control of Fusarium culmorum.
Data set [3] has as its system Magnaporthe grisea (Pyricularia oryzae). Kind of data set: microbe, parasite or virus in culture. The note with it: read-out: control of Magnaporthe grisea. In kind it is cell-based.

Consider `CC1(CC(C)(CC(F)(F)F)C(=O)Nc2cnc3c(F)cccc3c2)CC1` (centres unmarked) [Compound E1, 4,4,4-trifluoro-N-(8-fluoro-3-quinolyl)-2-methyl-2-[(1-methylcyclopropyl)methyl]butanamide], for which the melting point (commonly the temperature of the solid-liquid transition) fell in the range of 60 to 70 °C. Further, the inhibition of growth at 20 ppm in data set [1] was ≥ 80%. In addition, the inhibition of growth at 20 ppm in data set [2] was ≥ 80%. Further, the inhibition of growth at 20 ppm in the data set with Fusarium culmorum was ≥ 80%. Moreover, the inhibition of growth at 20 ppm in data set [3] is ≥ 80%.

As for `C/C=C(\C)CC(C)(CC(C)C)C(=O)Nc1cnc2c(F)cccc2c1` (centres unmarked) [Compound E2], the melting point was 135 to 137 °C. For the same molecule, in data set [1], the inhibition of growth at 20 ppm is ≥ 80%. Besides, in data set [2], the inhibition of growth at 20 ppm was ≥ 80%. In addition, the inhibition of growth at 20 ppm in the data set on Fusarium culmorum is ≥ 80%. The inhibition of growth at 20 ppm in data set [3] was ≥ 80%.

As to `CC(C)=C(C)CC(C)(CC(C)C)C(=O)Nc1cnc2c(F)cccc2c1` (centres unmarked) [Compound E3], the inhibition of growth at 20 ppm (in data set [1]; in data set [2]; in the data set with Fusarium culmorum; in data set [3]) was ≥ 80% throughout.

With `CC(C)=C(F)CC(C)(CC(C)C)C(=O)Nc1cnc2ccccc2c1` (centres unmarked) [Compound E4], the inhibition of growth at 20 ppm (in data set [1]; in data set [2]; in the data set with Fusarium culmorum; in data set [3]) was ≥ 80% throughout.

On to `CC(C)CC(C)(CC1CC1)C(=O)Nc1cnc2c(F)cccc2c1` (centres unmarked) [Compound E5], for which the inhibition of growth at 20 ppm (in data set [1]; in data set [2]; in the data set on Fusarium culmorum; in data set [3]) was ≥ 80% each time.

Consider `CC(C)CC(C#N)(CC(C)C)C(=O)Nc1cnc2c(F)cccc2c1` [Compound E6], for which the inhibition of growth at 20 ppm (in data set [1]; in data set [2]; in the data set with Fusarium culmorum; in data set [3]) was ≥ 80% in each case.

Take `C=CCC(C)(CC(C)C)C(=O)Nc1cnc2c(F)cccc2c1` (centres unmarked) [Compound E7]: the inhibition of growth at 20 ppm (in data set [1]; in data set [2]; with Fusarium culmorum; in data set [3]) was ≥ 80% in each case.

Take `C=C(C)CC(C)C(=O)Nc1cnc2c(F)cccc2c1` (centres unmarked) [Compound E9]: the inhibition of growth at 20 ppm (in data set [1]; in data set [2]; in the data set with Fusarium culmorum) was ≥ 80% throughout.

`CC(C)=C(F)CC(CC(C)C)C(=O)Nc1cnc2c(F)cccc2c1` (centres unmarked) [Compound E10] registered a melting point of 103 to 105 °C. Besides, the inhibition of growth at 20 ppm in data set [1] is ≥ 80%. For the same molecule, the inhibition of growth at 20 ppm in data set [2] is ≥ 80%. The inhibition of growth at 20 ppm in the data set with Fusarium culmorum was ≥ 80%. The inhibition of growth at 20 ppm in data set [3] was ≥ 80%.

`CC(CC1CCCCC1)C(=O)Nc1cnc2c(F)cccc2c1` (centres unmarked) [Compound E11] had a melting point of 179 to 181 °C. Moreover, the inhibition of growth at 20 ppm in data set [1] was ≥ 80%. Besides, the inhibition of growth at 20 ppm in data set [2] was ≥ 80%. Further, in the data set with Fusarium culmorum, the inhibition of growth at 20 ppm is ≥ 80%. In data set [3], the inhibition of growth at 20 ppm is ≥ 80%.

Regarding `C=C(Cl)CC(C)(CC1CCCCC1)C(=O)Nc1cnc2c(F)cccc2c1` (centres unmarked) [Compound E12], the inhibition of growth at 20 ppm (in data set [1]; in data set [2]; in the data set on Fusarium culmorum; in data set [3]) was ≥ 80% throughout.

As for `Cc1c(NC(=O)C(C)CC(C)C)cnc2c(F)cccc12` (centres unmarked) [Compound E13], the inhibition of growth at 20 ppm (in data set [1]; in data set [2]; in the data set on Fusarium culmorum) was ≥ 80% each time.

As for `CC(CC(F)(F)F)C(=O)Nc1cnc2c(F)cccc2c1` (centres unmarked) [Compound E14], the inhibition of growth at 20 ppm (in data set [1]; in data set [2]; with Fusarium culmorum) was ≥ 80% each time.
